From PMC6114962, “A Phase Ib, open-label, dose-finding study of alpelisib in combination with paclitaxel in patients with advanced solid tumors” (Oncotarget, 2018)
Where two headings read alike, the source gives them in different places. Each block holds one compound with its values, some of them ahead of it.

How the values were obtained:
[1] = system: patients with advanced solid tumors; assay type: in vivo
Method: (§1) Patients received oral alpelisib QD in 28-day cycles (300, 250, or 150 mg) and paclitaxel 80 mg/m^2 QW as a 1-hour (±15 minutes) IV infusion after standard premedication (per local standard practice). Patients received treatment until disease progression, unacceptable toxicity, patient decision, death, or discontinuation for any other reason.
(§2) PK samples for alpelisib were collected from all patients.
(§3) Analysis sets were as follows: full analysis set (FAS), all patients who received at least one dose of alpelisib and/or paclitaxel; safety set, all patients who received at least one dose of alpelisib and/or paclitaxel and had at least one valid post-baseline safety assessment; dose-determining set (DDS), all patients from the safety set who during Cycle 1 either met the minimum exposure criterion and had sufficient safety evaluations, or experienced a DLT; and pharmacokinetic analysis set, all patients in the FAS who received at least one dose of alpelisib and/or paclitaxel and had at least one evaluable concentration measurement.

[2] = system: patients with advanced solid tumors; conditions: cited from earlier work
[3] = system: patients with advanced solid tumors; test: Phase Ib dose finding: dose-limiting toxicities and MTD of alpelisib QD plus paclitaxel; assay type: in vivo, human; conditions: with paclitaxel 80 mg/m^2 QW; BLRM with EWOC
Method: In the dose-finding phase, the primary objective was to determine the MTD and/or recommended Phase II dose (RP2D) of alpelisib QD when administered with paclitaxel 80 mg/m^2 QW in patients with advanced solid tumors, and the secondary objectives were to assess safety and tolerability and to characterize the pharmacokinetic (PK) profile.
as §1, with “reason. […]” for “reason.”
An adaptive 5-parameter Bayesian logistic regression model (BLRM) with escalation with overdose control (EWOC) guided the dose-finding of each combination. […] Available data were analyzed after Cycle 1 per cohort of patients to decide the dose for the next cohort and/or determine the MTD/RP2D. […]

patients [4] = conditions: cited from earlier work
[5] = Plasma pharmacokinetics of paclitaxel and alpelisib in Cycle 1; assay type: in vivo, human; conditions: for Tmax / AUC(0-t) / Cmax / AUC(0-inf): human, plasma; for AUC(0-t): read-out: AUC0–24, geometric mean (CV%); for Cmax: read-out: Cmax, geometric mean (CV%); for AUC(0-inf): read-out: AUCinf, geometric mean (CV%)
Description: as §2, §3

patients [6] = system: patients; parameters: method as in PMID 22184370; conditions: paclitaxel 80 mg/m^2 QW, 1-hour IV infusion; cited from earlier work
[7] = alpelisib 150 mg plus paclitaxel
[8] = alpelisib 250 mg plus paclitaxel
[9] = alpelisib 300 mg plus paclitaxel
[10] = po, oral alpelisib 150 mg QD + paclitaxel, C1D8
[11] = po, oral alpelisib 250 mg QD + paclitaxel, C1D8
[12] = po, oral alpelisib 300 mg QD + paclitaxel, C1D8
[13] = iv, 80 mg/m^2, paclitaxel 80 mg/m^2 IV, C1D1, alpelisib 150 mg + paclitaxel cohort
[14] = iv, 80 mg/m^2, paclitaxel 80 mg/m^2 IV, C1D1, alpelisib 250 mg + paclitaxel cohort
[15] = iv, paclitaxel 80 mg/m^2 IV, C1D8, alpelisib 150 mg + paclitaxel cohort
[16] = paclitaxel 80 mg/m^2 IV, C1D1, alpelisib 300 mg + paclitaxel cohort
[17] = paclitaxel 80 mg/m^2 IV, C1D8, alpelisib 250 mg + paclitaxel cohort

SMILES: Cc1nc(NC(=O)N2CCC[C@H]2C(N)=O)sc1-c1ccnc(C(C)(C)C(F)(F)F)c1 [alpelisib]
rate of alpelisib dose interruption [1, 7]: 66.7% | rate of alpelisib dose reduction (at least one) [1, 7]: 22.2% | rate of alpelisib dose interruption [1, 8]: 75.0% | rate of alpelisib dose reduction (at least one) [1, 8]: 50.0% | rate of alpelisib dose interruption [1, 9]: 66.7% | rate of alpelisib dose reduction (at least one) [1, 9]: 66.7% | Grade 3/4 AE: hyperglycemia ([2]; single-agent alpelisib 30–450 mg QD or 120–200 mg twice daily, N=134): 23.9% | all-grade treatment-related AE: hyperglycemia ([2]; single-agent alpelisib, N=134): 51.5% | maximum tolerated dose (MTD), single agent ([2]; single-agent alpelisib, advanced solid tumors): 400 mg once daily (QD) | hyperglycemia DLT during dose finding ([2]; single-agent alpelisib, seven of 68 evaluable patients): 10.3% | dose from which preliminary anti-tumor activity was exhibited ([2]; single-agent alpelisib, solid tumors): ≥ 270 mg QD | all-grade treatment-related AE: decreased appetite ([2]; single-agent alpelisib): 41.8% | all-grade treatment-related AE: diarrhea ([2]; single-agent alpelisib): 40.3% | all-grade treatment-related AE: nausea ([2]; single-agent alpelisib): 50.0% | all-grade treatment-related AE: vomiting ([2]; single-agent alpelisib): 31.3% | MTD of alpelisib when administered with paclitaxel [3]: 150 mg QD | MTD of alpelisib with nab-paclitaxel (patients [4]; Phase I study (N=10)): not reached | recommended Phase II dose, alpelisib (patients [4]; plus nab-paclitaxel 100 mg/m^2 IV weekly): 350 mg daily | impact of steady-state alpelisib exposure on paclitaxel metabolism ([5]; alpelisib 150–300 mg): no impact | Cmax and AUC0-24 after oral administration versus dose ([5]; alpelisib 150–300 mg QD): increased in a dose-dependent manner | Tmax ([5]; oral, Cycle 1 Day 8, alpelisib 150–300 mg, read-out: Median time to maximum concentration (Tmax) across dose levels): 3.17 to 4.17 h | AUC(0-t) [5, 10]: 13800 ng·h/mL | Cmax [5, 10]: 1390 ng/mL | Tmax ([5]; po, oral alpelisib 150 mg QD + paclitaxel, C1D8, read-out: Tmax, median (range)): 3.17 h | AUC(0-t) [5, 11]: 27700 ng·h/mL | Cmax [5, 11]: 3750 ng/mL | Tmax ([5]; po, oral alpelisib 250 mg QD + paclitaxel, C1D8, read-out: Tmax, median (range)): 3.23 h | AUC(0-t) [5, 12]: 37100 ng·h/mL | Cmax [5, 12]: 3000 ng/mL | Tmax ([5]; po, oral alpelisib 300 mg QD + paclitaxel, C1D8, read-out: Tmax, median (range)): 4.17 h

plasma drug exposure (AUCinf and Cmax), Cycle 1 Day 1 versus Cycle 1 Day 8 ([5]; absence versus presence of alpelisib, except Cmax at alpelisib 300 mg C1D8): comparable | AUC(0-inf) [5, 13]: 4360 ng·h/mL | Cmax [5, 13]: 2650 ng/mL | AUC(0-inf) [5, 14]: 4320 ng·h/mL | Cmax [5, 14]: 2770 ng/mL | Cmax ([5]; iv, 80 mg/m^2, paclitaxel 80 mg/m^2 IV, C1D1, alpelisib 300 mg + paclitaxel cohort): 2700 ng/mL | AUC(0-inf) [5, 15]: 4370 ng·h/mL | Cmax [5, 15]: 2790 ng/mL | Cmax ([5]; iv, paclitaxel 80 mg/m^2 IV, C1D8, alpelisib 250 mg + paclitaxel cohort): 2960 ng/mL | AUC(0-inf) ([5]; iv, paclitaxel 80 mg/m^2 IV, C1D8, alpelisib 300 mg + paclitaxel cohort): 4470 ng·h/mL | Tmax ([5]; iv, paclitaxel 80 mg/m^2 IV, C1D8, alpelisib 300 mg + paclitaxel cohort, read-out: Tmax, median (range)): 0.75 h | Tmax, median (range) ([5]; paclitaxel 80 mg/m^2 IV, C1D1, alpelisib 150 mg + paclitaxel cohort): 1 (0.87–1.17) [8] hours | Tmax, median (range) ([5]; paclitaxel 80 mg/m^2 IV, C1D1, alpelisib 250 mg + paclitaxel cohort): 1 (0.45–1.05) [3] hours | AUCinf, geometric mean (CV%) [5, 16]: 5000 (24) [5] ng·hr/ml | Tmax, median (range) [5, 16]: 1 (0.5–1.28) [5] hours | Tmax, median (range) ([5]; paclitaxel 80 mg/m^2 IV, C1D8, alpelisib 150 mg + paclitaxel cohort): 1 (0.5–1.07) [9] hours | AUCinf, geometric mean (CV%) [5, 17]: 5000 (42.7) [2] ng·hr/ml | Tmax, median (range) [5, 17]: 0.8 (0.5–1.17) [3] hours | Cmax, geometric mean (CV%) ([5]; paclitaxel 80 mg/m^2 IV, C1D8, alpelisib 300 mg + paclitaxel cohort): 1250 (114) [6] ng/ml
SMILES: CC(=O)O[C@H]1C(=O)[C@@]2(C)[C@H]([C@H](OC(=O)c3ccccc3)[C@]3(O)C[C@H](OC(=O)[C@H](O)[C@@H](NC(=O)c4ccccc4)c4ccccc4)C(C)=C1C3(C)C)[C@]1(OC(C)=O)CO[C@@H]1C[C@@H]2O [paclitaxel]
all-grade AE: abdominal pain (patients [6]): 33% | all-grade AE: alopecia (patients [6]): 36% | all-grade AE: fatigue (patients [6]): 47% | all-grade AE: nausea (patients [6]): 31% | all-grade AE: peripheral neuropathy (patients [6]): 31%
